Experimental data taken from patent US20220193092A1, “PROGESTOGEN FOR USE IN THE TREATMENT OF CYTOKINE RELEASE SYNDROME” (Shenzhen Evergreen Therapeutics Co,. Ltd., priority 2020, published 2022).

Experiments:
Type in all cases: cell-based
[1] = test system: human peripheral blood mononuclear cells (PBMCs); experiment: T-cell inflammation inhibition assay using anti-CD28 super agonist (ANC28.1/5D10): cytokine release from PBMCs; settings: PBMCs stimulated by anti-CD28 antibody
Description: (§1) The human peripheral blood mononuclear cells (PBMCs) used in the following experiments are derived from Eurofins Discovery (St Charles, Mo., USA) and are a mixture of PBMCs from three healthy human subjects (Lot#98, 99, 101).
1) T-cell Inflammation Inhibition Assay Protocol Using Anti-CD28 Super Agonists First Day
High-binding enzyme-labeled plates are coated with anti-CD28 super agonists (clone ANC28.1/5D10, 2 μg/well) dissolved in PBS 1× and incubated overnight in a biosafety cabinet with lid open and immobilized by air-dry. Cryopreserved PBMCs are drip thawed, pooled and diluted to an appropriate density, and then are inoculated into a U bottom 96-well polypropylene plate (1.2×10^5 cells per well) with 228 μL per well of culture medium (RPMI 1640, 10% heat inactivated fetal bovine serum, 1% penicillin/streptomycin, 2 mM L-glutamine). The cells are incubated under 5% CO2 at 37° C. for 1 hour before adding HPC. HPC is dissolved in 50% ethanol & PBS, and is further diluted to 20× with cell culture medium. Then HPC is added to the PBMCs in volumes of 12 μL (1×) in triplicate and incubated under 5% CO2 at 37° C. for 16 hours.
After 16 hours of incubation, 200 μL of cells (1×10^5) treated with HPC or a control reagent are transferred to the anti-CD28 coated enzyme-labeled plates, and incubated under 5% CO2 at 37° C. for 48 hours. For the negative control groups, 200 μL of cells (1×10^5) are transferred to an enzyme-labeled plate coated with anti-CD28 or isotype IgG1. After 48 hours of incubation, the enzyme-labeled plates are centrifuged at […] for 10 minutes. Cell culture supernatants are collected and stored at −80° C. until use in analysis.
(§2) The cytokine level of each sample is determined using Luminex methodology and carried out in accordance with the manufacturer's protocol. Cytokine levels in the cell culture supernatants are determined in accordance with the manufacturer's protocol using Human Cytokine/Chemokine Magnetic bead panel from Millipore Sigma (catalogue No. HCYTOMAG-60K) with standards range 3.2, 16, 80, 400, 2000, […].
(§3) The following cytokines are measured: IFN-γ, IL-2, IL-6, IL-10 and TNFα.

[2] = test system: human peripheral blood mononuclear cells (PBMCs); experiment: T-cell inflammation inhibition assay using anti-CD3 (OKT3): cytokine release from PBMCs; settings: PBMCs stimulated by OKT3
Description: as §1
(§4) 2) T-Cell Inflammation Inhibition Assay Protocol Using Anti-CD3 (OKT3) or PHA
(§5) Cryopreserved PBMCs are drip thawed, pooled and diluted to an appropriate density, and inoculated into a 96-well polypropylene plate (2×10^5 cells per well) with 150 μL per well of culture medium (RPMI 1640, 10% heat inactivated fetal bovine serum, 1% penicillin/streptomycin, 2 mM L-glutamine). The cells are incubated under 5% CO2 at 37° C. for 1 hour before adding HPC. HPC is dissolved in 50% ethanol & PBS, and is further diluted to 20× with cell culture medium. Then HPC is added to the PBMCs in volumes of 10 μL (1×) in triplicate and incubated under 5% CO2 at 37° C. for 16 hours.
(§6) After incubation for 16 hours, 40 μL of anti-CD3 (OKT3, 3 μg/well or 15 μg/mL) or PHA (10 μg/mL) is added to the wells according to the plate layout. The cells are incubated under 5% CO2 at 37° C. for 48 hours. Thereafter, the plates are centrifuged at 200×g for 10 minutes. Cell culture supernatants are collected and stored at −80° C. until use in analysis.
as §2, §3

[3] = test system: human peripheral blood mononuclear cells (PBMCs); experiment: T-cell inflammation inhibition assay using PHA: cytokine release from PBMCs
Description: as §1, §4, §5, §6, §2, §3

[4] = 16 h HPC pre-incubation, 48 h stimulation, Luminex
[5] = PBMCs stimulated by PHA (10 μg/mL), 16 h HPC pre-incubation, 48 h stimulation, Luminex

CCCCCC(=O)O[C@]1(C(C)=O)CC[C@H]2[C@@H]3CCC4=CC(=O)CC[C@]4(C)[C@H]3CC[C@@]21C [HPC, hydroxyprogesterone caproate]
inhibition effect on IL-10 and IFN-γ release: concentration dependence [1]: concentration dependent
release of IFN-γ [1, 4]: significantly inhibited
release of IL-6 [1, 4]: significantly inhibited
release of IL-10 [1, 4]: significantly inhibited
release of TNF-α [1, 4]: significantly inhibited
inhibition effect on IL-6 and IL-10 release: concentration dependence [2]: concentration dependent
release of IFN-γ [2, 4]: significantly inhibited
release of IL-6 [2, 4]: significantly inhibited
release of IL-10 [2, 4]: significantly inhibited
inhibition of IL-2, IL-6, IL-10 and TNF-α release: concentration dependence ([3]; PBMCs stimulated by PHA): concentration dependent
release of IL-2 [3, 5]: significantly inhibited
release of IL-6 [3, 5]: significantly inhibited
release of IL-10 [3, 5]: significantly inhibited
release of TNF-α [3, 5]: significantly inhibited
